The term melting point denotes the temperature of the solid-liquid transition. As for `O=S(=O)(Cl)c1c(F)c(Br)cc(F)c1Br`, the melting point is 69 °C.

`CN1C2CCC1CC(OC(=O)c1ccccc1)C2` (stereo not given) showed a melting point of 49 °C.

`CN(C)c1ccccc1-c1ccccc1P(c1ccccc1)c1ccccc1` registered a melting point of 126 to 128 °C. `CC1CCC2C(C)C(=O)OCC12` (stereo not given) gave a melting point of 60.5 °C.

Turning to `CC(C)(C)OC(=O)N[C@H](CC(=O)O)Cc1ccccc1`, the melting point is 104 °C. To `Cn1c(Br)nc(C(=O)O)c1C(=O)O` belongs 160 °C; to `CCOc1ccc(-c2nnc3n2NC(c2ccc(N(C)C)cc2)S3)cc1` (stereo not given), 137 °C.

`COc1ccc(C=C2C3=C(CCCC3)OC3=C2CCCC3)cc1`: the melting point lay within 123 to 124 °C. In the case of `CCC(CO)(CO)[N+](=O)[O-]`, the melting point was found to be 57.5 °C. With `CC1=NN(c2ccccc2)C(=O)C1C(=O)C(F)(F)F` (stereo not given), the melting point came to 143 °C.

Compound `O=S(=O)(O)c1ccc2ccc(S(=O)(=O)O)cc2c1` gave a melting point of 199 °C. To `O=[N+]([O-])c1ccsc1Cl` belongs 51 to 52 °C; to `CCOC(=O)CC(=O)c1cc(OC)c(OC)c(OC)c1`, 86 to 91 °C; to `O=[N+]([O-])c1ccccc1CCO`, 2 °C. To `NC(=O)CCC(N)=O` belongs 260 to 265 °C; to `ClC1(Cl)CCCCC1`, -47 °C.

Regarding `O=c1oc2ccccc2c(O)c1C1CC(c2ccc(-c3ccc(Br)cc3)cc2)Cc2ccccc21` (stereo not given), the melting point was 230 °C. For the compound `Nc1nn2c(-c3ccccc3)cc(=O)[nH]c2c1/N=N/c1ccccc1`, the melting point came out at 265 °C.

As for `COC(=O)C1(S(=O)(=O)c2ccccc2)CC1`, the melting point is 74.5 °C. For `CSc1sc(C(=O)O)c(Cl)c1S(=O)(=O)C(C)C`, the melting point was 227 to 230 °C.

On to `OCc1csc(N2CCOCC2)n1`, for which the melting point lay in the range of 118 to 120 °C. `C1CCC2CCCC2C1` (stereo not given) returned a melting point of -53 °C. Compound `Cc1nn(C)c(C)c1N` displayed a melting point of 102 °C. As for `O=C(CBr)c1ccc(Oc2ccccc2)cc1`, the figure is 49 to 50 °C. `NC(=S)c1ccccc1F` displayed a melting point of 80 to 84 °C. The compound `O=[N+]([O-])c1ccc(Nc2ccccc2O)c([N+](=O)[O-])c1` showed a melting point of 198 °C. In the case of `Oc1ccc2ccc3cccc4ccc1c2c34`, the melting point was 180 °C. Regarding `CC(=O)Oc1ccc2c(C)cc(=O)oc2c1`, the melting point was 152 to 156 °C. As for `COc1ccc(C(=O)O)cc1Br`, the figure is 220 °C; as for `CC1(C)C2CCC1(C)C(NC(=O)c1ccc([N+](=O)[O-])cc1)C2NC(=O)c1ccc([N+](=O)[O-])cc1` (stereo not given), 170 °C; as for `Oc1ccc(I)cn1`, 190 °C. In the case of `COc1cc(CC2C(=O)NC(=N)N2C)ccc1O` (stereo not given), the melting point fell in the range of 231 to 233 °C. To `Oc1cc(Br)ccc1Cl` belongs 57 °C; to `O=C1Nc2ccc(Cl)cc2C1=O`, 242 to 250 °C; to `CC(=O)c1ccc(Cc2ccccc2)cc1`, 38 to 40 °C. The compound `Cc1ccc(I)c([N+](=O)[O-])c1` showed a melting point of 52 to 54 °C. To `CCOP(=S)(OCC)Oc1ccc2c3c(c(=O)oc2c1)CCCC3` belongs 88.2 °C. To `O=C1C(C(O)c2ccc(Cl)cc2Cl)C(C(F)(F)F)=NN1c1ccccc1` (stereo not given) belongs 249 °C. Compound `N#Cc1ccc(-n2cccc2)cc1` came in with a melting point of 103 to 105 °C.

As for `Cc1ccc(O[C@H]2CC[C@@]3(C)C(=CC[C@H]4[C@@H]5CC[C@H]([C@H](C)CCCC(C)C)[C@@]5(C)CC[C@@H]43)C2)cc1`, the melting point was 148 °C. As for `CC12CCC3c4ccc(OC5CCCC5)cc4CCC3C1CC(O)C2O` (stereo not given), the figure is 99 °C.

`C=C1C(=O)C23C(OC)CC4C5(C)CCCC4(COC5)C2C(OC(C)=O)CC1C3O` (stereo not given) yielded a melting point of 183 °C. To `Cc1c([N+](=O)[O-])cc(C(=O)O)cc1[N+](=O)[O-]` belongs 155 to 159 °C. To `COC(=O)c1cc(C)nn1C(=O)OC` belongs 111 to 112 °C. As for `N#C/C(=N\Nc1ccc(Cl)cc1)c1nc2ccccc2s1`, the figure is 188 °C; as for `CCN(CC)c1nc2ccccc2c(=O)n1-c1ccccc1`, 109 °C; as for `CCCOC(=O)C1=C(C)NC(C)=C(C(=O)OCCC)C1c1ccco1`, 112 °C.

Compound `O=Cc1cccn1-c1ccc(Cl)cc1` yielded a melting point of 92 to 96 °C. To `CC(C)[Si](Cl)(Cl)Cl` belongs -87.7 °C; to `CS(=O)(=O)c1ccc(O)cc1`, 93 °C. `O=Cc1ccc(OCc2ccccc2)c(OCc2ccccc2)c1` registered a melting point of 88 to 92 °C. As for `O=C(c1ccccc1)c1ccccc1N=Nc1ccccc1C(=O)c1ccccc1`, the figure is 205 °C; as for `CCN1CCN(C(=O)NC(C(=O)NC2C(=O)N3C(C(=O)O)=C(CSc4nnnn4C)CSC23)c2ccc(O)cc2)C(=O)C1=O` (stereo not given), 169 °C. Compound `CCc1cc(Cc2cc(CC)cc(C(C)(C)C)c2O)c(O)c(C(C)(C)C)c1` yielded a melting point of 120 °C.

As to `c1ccc(-c2coc(-c3ccccc3)n2)cc1`, the melting point worked out at 103 °C. As for `O=C(OCc1ccccc1)[C@@H](O)[C@H](O)C(=O)OCc1ccccc1`, the figure is 63 to 65 °C. To `NC(=S)CCn1cccc(C(F)(F)F)c1=O` belongs 154 to 155 °C; to `CC(C)(C)c1ccc2cc3ccccc3cc2c1`, 147 °C. As to `CCC(=O)OCC(C)C`, the melting point is -71.4 °C. To `OCc1ccc(CN2CCOCC2)cc1` belongs 94 °C; to `O=C1C=CC(=O)N1c1ccc(Cc2ccc(N3C(=O)C=CC3=O)cc2)cc1`, 155 to 159 °C; to `N[C@@H](CCCCNC(=O)c1ccccc1)C(=O)O`, 251 to 256 °C. Compound `Cc1ccc(OC2CCC3C4CCC5CC(=O)CCC5(C)C4CCC23C)cc1` (stereo not given) yielded a melting point of 148 to 153 °C. To `CC(=O)Cc1ccccc1` belongs -15 °C; to `Nc1n[nH]c2ccc(C(F)(F)F)cc12`, 135 °C; to `BrCCOc1ccccc1`, 39 °C.

`CC1(C)CCC2(C)CC=C3C(C)(CCC4C3(C)CCC3C(C)(C)C(O)CCC43C)C2C1` (stereo not given) returned a melting point of 284 °C.

On to `O=[N+]([O-])c1cc(Cl)ccc1Br`, for which the melting point was determined as 70 °C. With `CCSc1ncccc1C(=O)NC(CCSC)C(=O)O` (stereo not given), the melting point lay within 121 to 122 °C. To `O=[N+]([O-])c1ccc(I)c([N+](=O)[O-])c1` belongs 89 °C; to `CC(=O)OC1CC2(O)C(C)C(=O)C3(C(O)CC4C(C)(C)CCC(OC(C)=O)C4(C)C13)C2O` (stereo not given), 234 °C; to `Cc1cc2c(o1)-c1c(oc3c(Br)cc(Br)cc13)CCC2C` (stereo not given), 121 °C.

Turning to `CCOC(=O)NC(=S)Nc1sc2c(c1C(=O)OCC)CCCC2`, the melting point was 187 to 190 °C. As for `Oc1cc(C(F)(F)F)nc(S)n1`, the figure is 251 °C; as for `O=Cc1ccc(-c2ccccc2OC(F)(F)F)o1`, 72 to 74 °C. Turning to `O=S(=O)(Cl)c1c(Cl)sc(Cl)c1Br`, the melting point came out at 69 °C. To `COc1ccc(/N=N/c2c(N)nn3c(C)cc(C)nc23)cc1` belongs 201 to 203 °C; to `Cc1ccc2ncoc2c1`, 29 to 31 °C; to `Cc1c(C(C)C2NCC(C)CC2O)ccc2c1CC1C2CC=C2CC(O)CCC21C` (stereo not given), 206 °C. To `BrC(=C(\Br)c1ccccc1)/C(Br)=C(\Br)c1ccccc1` belongs 236 °C; to `CCOC(=O)C1=C(C)N=c2cc3c(cc21)=C(C(=O)OCC)C(C)=N3`, 342 °C; to `O=c1c(C2CC(c3ccc(-c4ccc(Br)cc4)cc3)Cc3ccccc32)c(O)sc2ccccc12` (stereo not given), 235 °C.

In turn, `CCOC(=O)c1cnn(-c2ccccc2)c1N` registered a melting point of 99.5 °C. As for `NC(=O)c1cccnc1Oc1ccccc1`, the figure is 162 to 163 °C. `Cc1cnc2c(ccc3c(C)c(C)cnc32)c1C` came in with a melting point of 278 °C. Consider `O=c1[nH]cc(C(F)(F)F)c(=O)[nH]1`, for which the melting point turned out to be 316 °C. To `CC(C)Cc1ccc(C(=O)C(C)Br)cc1` (stereo not given) belongs 63 to 64 °C; to `CCc1ccc(C(N)=O)cc1`, 163 °C; to `N#CCSc1ccc2ccccc2c1`, 83 to 86 °C. `Nc1ccc2c3c(cccc13)C(=O)NC2=O` yielded a melting point of 360 °C. As to `O=Cc1scc2c1OCCO2`, the melting point was in the range of 138 to 140 °C.

Regarding `COC(=O)c1cc(C)n(CO)n1`, the melting point turned out to be 89 °C.

In turn, `Oc1ccc(C(c2ccccc2)(c2ccccc2)c2ccccc2)cc1` yielded a melting point of 283 to 289 °C. Compound `O=[N+]([O-])C(CO)(CO)CO` registered a melting point of 214 °C.

Compound `O=C(CCl)N1CCc2c([nH]c3ccccc23)C1C(F)(F)F` (stereo not given) displayed a melting point of 232 to 235 °C.

`CCOC(=O)CCCOc1ccccc1NC(=O)c1ccc2c(c1)CC1(CCC(c3ccc(C(C)(C)C)cc3)CC1)C2` (stereo not given) returned a melting point of 112 °C. As for `O=S(=O)(Cl)c1ccc2nsnc2c1`, the melting point lay in the range of 69 to 74 °C. To `Cc1ccc(Sc2ccc(C=CC(=O)O)cc2[N+](=O)[O-])cc1` belongs 217 to 218 °C; to `N#CCCCC#N`, -29 °C; to `COc1cc(C(=O)OCc2cccc(COC(=O)c3cc(OC)c(OC)c(OC)c3)n2)cc(OC)c1OC`, 119 °C.

For the compound `CC(=O)Nc1ccccc1CCN(CCc1ccccc1NC(C)=O)C(C)=O`, the melting point lay within 188 to 190 °C. As for `CCC(C)(N)P(=O)(O)O` (stereo not given), the figure is 268 to 272 °C. To `C=Cc1ccc(C(=O)OC)cc1` belongs 36 °C; to `COc1ccc(S(N)(=O)=O)cc1`, 112 °C. To `CCCOC(=O)c1ccccc1` belongs -51.6 °C.

Source of the values: a melting point compilation (Tetko et al.).
